In one series the test system is HeLa Kyoto (HK) cells. The experiment in a line: Cellular uptake of fluorescent transporters (HCHT imaging, SDCM). The class given is cell-based, Human. As to conditions: 10, 20, 50 μM transporter. The protocol: Cellular uptake was measured by automated high-content high-throughput (HCHT) imaging.[51] This method provides access to biologically meaningful and statistically relevant data from thousands of cells within a very short time. For the uptake monitoring, HeLa Kyoto (HK) cells in multiwell plates were incubated with the fluorescent transporters 28–30 for 1 h, washed, and imaged by spinning disk confocal microscopy (SDCM) to quantify the fluorescent transporters that have entered the cells. […] The better activity of CTOs 28 compared to 29 was consistent with the concept of hydrophobic directing groups, expected to guide CTOs into an aprotic environment within membranes or proteins to activate the sulfinate exchanger and thus turn on dynamic covalent exchange cascades with cellular partners (Figure 2D). The passive diffusion of transporter 28 across the membrane is conceivable but unlikely because this process can be inhibited by other CAXs (see the next section).
4. High-Content High-Throughput (HCHT) Inhibitor Screening […]
The distribution of fluorescence stained cells was analyzed without fixing using an IXM-C automated microscope. 4 images per well were recorded using 10× objective lens, and fluorescent images were acquired with three channels, blue with 377/50 nm excitation filter and 477/60 nm emission filter, green for FITC transporter with 475/34 nm excitation filter and […]

A further series has as its system HK cells, transporter 31. The series can be described thus: HCHT imaging: inhibition of cytosolic delivery of ETP transporter 31. Type of series: cell-based, Human. Particulars: transporter 31 10 μM, co-incubation (C), inhibitor 1 h. In outline:
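HeLa Kyoto cells grown 24 h in FluoroBrite DMEM + 10% FBS on 96-well black plates were exposed to serially diluted inhibitors for 1 h at 37 °C, then given fluorescent transporter 31 at 10 μM for 30 min, either after washing the inhibitor out (pre-incubation) or with it still present (co-incubation). Cytosolic delivery was then scored by automated HCHT live-cell imaging with Hoechst 33342 and PI staining.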

The next series concerns HeLa Kyoto cells. The experiment in a line: Relative viability (HOE/PI) in HCHT screening. As to conditions: with transporter 31; co-incubation (C). A digest of the protocol: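 HK cells exposed to increasing inhibitor concentrations, then fluorescent transporters at constant concentration, either after inhibitor removal (pre-incubation) or without removal (co-incubation).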

Series [1] concerns A549 human lung alveolar basal epithelium cells overexpressing ACE2 and TMPRSS2. As to conditions: inhibitor 5 μM.

On to `CC(C)(C)[Si](C)(C)O[C@H]1CS(=O)(=O)SC[C@@H]1OCC(=O)NCCNC(=S)Nc1ccc(-c2c3ccc(=O)cc-3oc3cc(O)ccc23)c(C(=O)O)c1` [Compound 28], for which, in the series with HeLa Kyoto (HK) cells, the “cellular uptake, fluorescence intensity of HK cells (in words)” value is reported as “more active than the AspA 30 standard”.
Take `O=C(CO[C@H]1CSS(=O)(=O)C[C@@H]1O)NCCNC(=S)Nc1ccc(-c2c3ccc(=O)cc-3oc3cc(O)ccc23)c(C(=O)O)c1` [Compound 29]: the “cellular uptake, fluorescence intensity of HK cells (in words)” value in the series on HeLa Kyoto (HK) cells was “more active than the AspA 30 standard”.
Take `CC(C)(C)OC(=O)NCCNC(=O)O[C@H]1CSS(=O)(=O)C[C@H]1O[Si](C)(C)C(C)(C)C` (racemic) [Compound 50]: the IC50 in the series on HK cells, transporter 31 (read-out: IC50 (concentration needed to reach 50% inhibition)) turned out to be 20 ± 3 µM. For the same compound, in the series on HK cells, transporter 31, the “MIC (concentration needed to reach 15% inhibition)” value came to 5.6 µM. The “RV50 (concentration needed to lower relative viability by 50%)” value with HeLa Kyoto cells is recorded as “≈ 20 μM”. Besides, the “RV, relative cell viability” value in series [1] stood at 110 ± 10%.

Values taken from publication PMC9088311, “Cyclic Thiosulfonates for Thiol-Mediated Uptake: Cascade Exchangers, Transporters, Inhibitors” (JACS Au, 2022).
